ChEMBL document CHEMBL5712922, “Synergistic effects of type I PRMT and PARP inhibitors against non-small cell lung cancer cells” (Clin Epigenetics, 2021)
Counter-ions that a name gives are not always drawn.

Tested on: A549
Assay: Antiproliferative against human A549 cells assessed as viable cells pretreated with MS023 for 24 hrs followed by compound addition at 10 uM measured after for 24 hrs relative to control
Details: A549, 24 h, read-out: Activity

| SMILES | viability at 10 µM |
| --- | --- |
| CCn1c2ccccc2c2cc(CNCc3ccccc3OC)ccc21 | 54.2% |
| Cc1cnc(Nc2ccc(N3CCN(C)CC3)cc2)nc1Nc1cccc(S(=O)(=O)NC(C)(C)C)c1 | 54.2% |
| N[C@H]1C[C@@H]1c1ccc(-c2cccc(O)c2)cc1 | 54.2% |
| O=C([C@@H](Cc1cccc(C(F)(F)F)c1)NS(=O)(=O)c1cc(F)c2c(c1)CCNC2)N1CCCC1 | 54.2% |
| C[C@@H]1CCN(C(=O)CC#N)C[C@@H]1N(C)c1ncnc2[nH]ccc12 [TOFACITINIB] | 54.2% |
| Cc1cc(Nc2nc(N[C@@H](C)c3ccc(F)cc3)c(C#N)cc2F)n[nH]1 | 54.2% |
| Nc1nccc2c1ncn2[C@@H]1C=C(CO)[C@@H](O)[C@H]1O | 54.2% |
| C#Cc1cccc(Nc2ncnc3cc(OC)c(OCCCCCCC(=O)NO)cc23)c1 [CUDC-101] | 54.2% |
| O=C(O)CNC(=O)c1c(O)c2ccccc2n(Cc2ccccc2)c1=O | 54.2% |
| CO[C@@]12[C@H](COC(N)=O)C3=C(C(=O)C(C)=C(N)C3=O)N1C[C@@H]1N[C@@H]12 [MITOMYCIN] | 54.2% |
| CC(C)N(CCC(=O)c1ccc2ccccc2c1)Cc1ccccc1 | 54.2% |
| CC(=O)Nc1ccc(C(=O)Nc2ccccc2N)cc1 [TACEDINALINE] | 54.2% |
| O=C(/C=C/N1C[C@H]2C[C@@H]1CN2c1ccccn1)c1ccccc1O | 54.2% |
| COc1cc2c(Nc3ccc(NC(=O)c4ccccc4)cc3)ncnc2cc1OCCCN1CCOCC1 | 54.2% |
| O=C(c1ccc(Cl)cc1Cl)n1nnc2ccccc21 | 54.2% |
| CC1COc2c(N3CCN(C)CC3)c(F)cc3c(=O)c(C(=O)O)cn1c23 (stereo not drawn) [OFLOXACIN] | 54.2% |
| O=C(/C=C/c1cccc(S(=O)(=O)Nc2ccccc2)c1)NO [BELINOSTAT] | 54.2% |
| Cc1sc2c(c1C)C(c1ccc(Cl)cc1)=N[C@@H](CC(=O)OC(C)(C)C)c1nnc(C)n1-2 | 54.2% |
| Cc1sc2c(c1C)C(c1ccc(Cl)cc1)=N[C@@H](CC(=O)Nc1ccc(O)cc1)c1nnc(C)n1-2 [BIRABRESIB] | 54.2% |
| Cc1cn([C@H]2O[C@@H](CO)[C@H](O)[C@H]2F)c(=O)[nH]c1=O [CLEVUDINE] | 54.2% |
| COc1ccccc1S(=O)(=O)Nc1ccc2c(c1)CN(C)C(=O)N2 | 54.2% |

| SMILES | viability at 10 µM |
| --- | --- |
| Nc1ccccc1NC(=O)c1ccc(CNc2nccc(-c3cccnc3)n2)cc1 [MOCETINOSTAT] | 54.2% |
| O=C(Nc1cccc(Cl)c1)Nc1ncc(CCNc2ncnc3ccsc23)s1 [SNS-314 MESYLATE] | 54.2% |
| O=C(COc1cccc2c(=O)[nH]ccc12)c1ccccc1 | 54.2% |
| CCCCCCCc1ccc(CCc2cccc(O)c2C(=O)O)cc1 | 54.2% |
| COc1cc2nc(N3CCCC3)nc(NCCCCCN3CCCC3)c2cc1OC | 54.2% |
| CO[C@@H](C(=O)N1Cc2[nH]nc(NC(=O)c3ccc(N4CCN(C)CC4)cc3)c2C1)c1ccccc1 [DANUSERTIB] | 54.2% |
| O=C(c1ccc(C(=O)N2CCC(N3CCCC3)CC2)c(Nc2ccccc2)c1)N1CCC(N2CCCC2)CC1 | 54.2% |
| CCn1cc(-c2ccnc3[nH]c(-c4cccc(CN(C)C)c4)cc23)c(-c2ccc(NC(=O)N(C)C)cc2)n1 [GSK-1070916] | 54.2% |
| O=c1c(O)c(-c2ccc(O)c(O)c2)oc2cc(O)cc(O)c12 [QUERCETIN] | 54.2% |
| O=C(NCC1(c2nc(-c3ccccc3)cs2)CCOCC1)c1cccc(-c2noc(C(F)(F)F)n2)c1 | 54.2% |
| O=C(O)CCCc1ccccc1 [SODIUM PHENYLBUTYRATE] | 54.2% |
| O=C(CCCCCN1C(=O)c2cccc3cccc(c23)C1=O)NO | 54.2% |
| NC(=O)C1CCCc2c1[nH]c1ccc(Cl)cc21 (stereo not drawn) | 54.2% |
| Nc1ccn([C@@H]2O[C@H](CO)[C@@H](O)C2(F)F)c(=O)n1 [GEMCITABINE] | 54.2% |
| CCOC(=O)Nc1cc(-c2ccc(C)c(NS(C)(=O)=O)c2)nn2c(C)nnc12 | 54.2% |
| CCc1cccc(CC)c1NC(=O)N1Cc2[nH]nc(NC(=O)c3ccc(N4CCN(C)CC4)cc3)c2C1 [PHA-680632] | 54.2% |
| CN(C)CCCNC(=O)c1ccc(-c2cc(O)c3ncccc3c2)cc1 | 54.2% |
| NC(=O)c1ncn([C@@H]2O[C@H](CO)[C@@H](O)[C@H]2O)c1O [MIZORIBINE] | 54.2% |
| CCCOc1ccc(CCc2nc3cc(-c4c(C)noc4C)ccc3n2CCN2CCOCC2)cc1 | 54.2% |
| Nc1ncn([C@@H]2O[C@H](CO)[C@@H](O)[C@H]2O)c(=O)n1 [AZACITIDINE] | 54.2% |
| CCC(CC)n1ccc2c(C(=O)NCc3c(C)cc(C)[nH]c3=O)cc(C#N)cc21 | 54.2% |

| SMILES | viability at 10 µM |
| --- | --- |
| CCS(=O)(=O)N1CCC([C@@H](C)n2c(C)c(C(=O)NCc3c(OC)cc(C)[nH]c3=O)c3ccccc32)CC1 | 54.2% |
| CN(C)c1ccc(C(=O)NCCCCCCC(=O)NO)cc1 | 54.2% |
| COc1cc2ncnc(Nc3ccc(O)c(Br)c3)c2cc1OC | 54.2% |
| COc1cc2c(cc1NS(=O)(=O)c1ccc(Br)cc1C)n(C)c(=O)n2C | 54.2% |
| Clc1ccc(N/N=C(\c2ccccc2)c2ccccn2)nc1 | 54.2% |
| CC(=O)N1c2ccc(-c3ccc(C(=O)O)cc3)cc2[C@H](Nc2ccc(Cl)cc2)C[C@@H]1C | 54.2% |
| N[C@@H]1C[C@H]1c1ccccc1 [TRANYLCYPROMINE HYDROCHLORIDE] | 54.2% |
| Cc1nc(N)sc1-c1ccnc(Nc2ccc(N3CCOCC3)cc2)n1 [CYC-116] | 54.2% |
| CCN(CCO)CCCOc1ccc2c(Nc3cc(CC(=O)Nc4cccc(F)c4)[nH]n3)ncnc2c1 [DEFOSBARASERTIB] | 54.2% |
| COc1ccc(-c2nc(N3CCOCC3)c3sc(CN(C)c4ncc(C(=O)NO)cn4)cc3n2)cn1 [FIMEPINOSTAT] | 54.2% |
| CCN1CCN(C(=O)Cc2ccc(Nc3ncc(F)c(Nc4ccc(C(=O)Nc5ccccc5Cl)cc4)n3)cc2)CC1 | 54.2% |
| O=C(O)CCNc1cc(N2CCc3ccccc3CC2)nc(-c2ccccn2)n1 | 54.2% |
| COc1cc(C)[nH]c(=O)c1CNC(=O)c1c(C)n([C@H](C)C2CCOCC2)c2ccccc12 | 54.2% |
| O=C(O)[C@H](Cc1c[nH]c2ccccc12)N1C(=O)c2ccccc2C1=O | 54.2% |
| O=C(CCCCCCC(=O)Nc1ccccc1)NO [VORINOSTAT] | 54.2% |
| CC(C)[C@H](C(=O)Nc1ccc(C(=O)NO)cc1)c1ccccc1 [AR-42] | 54.2% |
| O=C(O)c1ccc(O)c2ncccc12 | 54.2% |
| CCCCCCCCCCCCCCCc1cccc(O)c1C(=O)O [ANACARDIC ACID] | 54.2% |
| Nc1ccn([C@@H]2O[C@H](CO)[C@@H](O)[C@@H]2O)c(=O)n1 [CYTARABINE] | 54.2% |
| CCCCCCCCCC(=O)N[C@@H](Cc1c[nH]c2ccccc12)C(=O)N[C@H](CC(N)=O)C(=O)N[C@@H](CC(=O)O)C(=O)N[C@@H]1C(=O)NCC(=O)N[C@@H](CCCN)C(=O)N[C@@H](CC(=O)O)C(=O)N[C@H](C)C(=O)N[C@@H](CC(=O)O)C(=O)NCC(=O)N[C@H](CO)C(=O)N[C@@H]([C@H](C)CC(=O)O)C(=O)N[C@@H](CC(=O)c2ccccc2N)C(=O)O[C@@H]1C | 54.2% |
| COc1cc(Nc2ncc3c(n2)-c2ccc(Cl)cc2C(c2c(F)cccc2OC)=NC3)ccc1C(=O)O [ALISERTIB] | 54.2% |
